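Interpolation was linear, between the two tested concentrations surrounding the appropriate level; five concentrations were tested over 48 hours in 96-well plates. At the GI50, growth is halved. At the TGI there is no net growth.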
Columns and labels:
Assay in all cases: growth of human tumour cells (NCI), 48 h
BT-549 breast = test system: BT-549 breast
MDA-MB-231 breast = test system: MDA-MB-231 breast
SN12C renal = test system: SN12C renal
MCF7 breast = test system: MCF7 breast
M14 melanoma = test system: M14 melanoma
SW-620 colon = test system: SW-620 colon
NCI-H23 lung = test system: NCI-H23 lung
NCI-H522 lung = test system: NCI-H522 lung
SF-268 CNS = test system: SF-268 CNS
HOP-92 NSCLC = test system: HOP-92 NSCLC

SMILES	GI50 (BT-549 breast)	TGI (BT-549 breast)	GI50 (MDA-MB-231 breast)	TGI (MDA-MB-231 breast)	GI50 (SN12C renal)	TGI (SN12C renal)	GI50 (MCF7 breast)	TGI (MCF7 breast)	GI50 (M14 melanoma)	TGI (M14 melanoma)	GI50 (SW-620 colon)	TGI (SW-620 colon)	GI50 (NCI-H23 lung)	TGI (NCI-H23 lung)	GI50 (NCI-H522 lung)	GI50 (SF-268 CNS)	TGI (SF-268 CNS)	GI50 (HOP-92 NSCLC)	TGI (HOP-92 NSCLC)	TGI (NCI-H522 lung)
COc1cc(C2CC(c3ccc4c(c3)OCO4)=NN2C(C)=O)cc(OC)c1OC (stereo not drawn)	6.82 µM	> 100 µM	4.07 µM	> 100 µM	7.48 µM	> 100 µM	0.352 µM	> 100 µM	0.536 µM	> 39.7 µM	0.426 µM	> 100 µM	1.81 µM	> 100 µM	0.382 µM	6.42 µM	> 100 µM	> 100 µM	> 100 µM	–
COc1ccc(OC)c(-c2cc(-c3ccccc3)nn2-c2ccc(S(N)(=O)=O)cc2)c1	17.7 µM	38.9 µM	11.1 µM	27 µM	12.5 µM	25 µM	3.08 µM	16 µM	5.38 µM	16.6 µM	12.7 µM	33.4 µM	15.8 µM	30.2 µM	8.04 µM	12.6 µM	27.5 µM	15.5 µM	50.1 µM	30 µM
CCCCSCc1nc2nc(Cl)c(Cl)nc2[nH]1	–	79.4 µM	–	79.2 µM	–	53.2 µM	–	68 µM	–	66.6 µM	–	> 100 µM	–	44.6 µM	–	–	> 100 µM	–	> 100 µM	42.6 µM
C=C1C(=O)O[C@H]2[C@H]1[C@H](OC(=O)/C(C)=C\C)C[C@]1(CO1)[C@@H]1[C@H](OC(C)=O)C=C(C)[C@]21O	–	24.4 µM	–	39.5 µM	–	30.2 µM	–	29.1 µM	–	54.9 µM	–	27.9 µM	–	53.2 µM	–	–	45.5 µM	–	30.3 µM	16.8 µM
CCOC(=O)c1cc2cc(NC(=O)c3cc4cc([N+](=O)[O-])ccc4n3C)ccc2n1C	11.6 µM	35.3 µM	2.69 µM	16.3 µM	16.3 µM	46.5 µM	44.2 µM	> 100 µM	34.7 µM	> 100 µM	93.5 µM	> 100 µM	12.3 µM	37 µM	> 100 µM	49.1 µM	> 100 µM	34.9 µM	85 µM	> 100 µM
CC12CCc3ccccc3C1=Nc1ccccc12 (stereo not drawn)	–	95.6 µM	–	> 100 µM	–	43.7 µM	–	> 100 µM	–	> 100 µM	–	> 100 µM	–	> 100 µM	–	–	> 100 µM	–	54 µM	> 100 µM
CCn1c(-c2nonc2N)nc2c(C#CC(C)(C)O)nc(O[C@@H](CN)c3ccccc3)cc21	0.356 µM	1.9 µM	0.528 µM	2.65 µM	0.208 µM	2.82 µM	0.055 µM	2.58 µM	0.407 µM	1.67 µM	0.119 µM	3.17 µM	0.344 µM	2.97 µM	0.0919 µM	0.574 µM	1.98 µM	0.0727 µM	1.12 µM	0.353 µM
COc1ccc(/C(Cl)=C(\C=O)c2ccc(OC)c(OC)c2)cc1OC	–	> 100 µM	–	> 100 µM	–	> 100 µM	–	> 100 µM	–	> 100 µM	–	> 100 µM	–	> 100 µM	–	–	> 39.8 µM	–	> 100 µM	> 100 µM
CCN(Cc1nc2cc(C(F)(F)F)ccc2nc1-c1ccccc1)c1ccc(OC)c(OC)c1	13.4 µM	31.7 µM	12.7 µM	29.2 µM	14.9 µM	29.6 µM	25.9 µM	> 100 µM	15.4 µM	29.5 µM	16.6 µM	36.5 µM	13.5 µM	34.2 µM	14.5 µM	26.1 µM	> 100 µM	15 µM	30.4 µM	34 µM
CS(=O)(=O)OCCN(CCOS(C)(=O)=O)c1ccc(C=Nc2ccc3oc(=O)ccc3c2)cc1	–	45.7 µM	–	80.8 µM	–	> 70.5 µM	–	> 93.5 µM	–	31.6 µM	–	> 83.1 µM	–	17.5 µM	–	–	74.3 µM	–	47.1 µM	0.828 µM
O=C(O)c1ccc(S(=O)(=O)N=Nc2c(O)[nH]c3ccccc23)cc1	–	> 100 µM	–	> 100 µM	–	> 100 µM	–	> 100 µM	–	> 100 µM	–	> 100 µM	–	> 100 µM	–	–	> 100 µM	–	> 100 µM	> 100 µM
CC(F)(F)c1cc(F)ccc1-c1sc2cc(O)ccc2c1Oc1ccc(/C=C/C(=O)O)cc1	6.46 µM	27 µM	14.3 µM	35 µM	14 µM	46 µM	–	15.2 µM	4.96 µM	25 µM	8.56 µM	24.9 µM	15.2 µM	37.4 µM	6.23 µM	7.31 µM	24.1 µM	11.1 µM	27.3 µM	29 µM
COc1ccc(NC(=O)c2sc3nc(C)c(C(O)c4ccc(OC)cc4)cc3c2N)cc1 (stereo not drawn)	1.81 µM	> 50 µM	2.06 µM	> 50 µM	2.25 µM	> 50 µM	0.196 µM	> 50 µM	1 µM	> 50 µM	1.26 µM	> 50 µM	2.06 µM	> 50 µM	1.27 µM	2.28 µM	> 50 µM	5.62 µM	> 50 µM	> 50 µM
COc1cccc(Cn2cc3c(c2)-c2oncc2CC3)c1	6.85 µM	> 100 µM	0.636 µM	96.8 µM	0.597 µM	> 100 µM	0.378 µM	> 100 µM	0.374 µM	> 48.2 µM	0.319 µM	> 100 µM	0.471 µM	> 80.7 µM	0.326 µM	0.918 µM	> 100 µM	2.17 µM	68.3 µM	1.89 µM
O=C(NCCN1CCOCC1)Nc1ccc(-c2cc3c(Nc4ccc(Oc5cccc(C(F)(F)F)c5)c(Cl)c4)ncnc3s2)cc1	2.32 µM	11.1 µM	1.07 µM	2.54 µM	1.97 µM	8.21 µM	1.11 µM	3.27 µM	1.16 µM	3.24 µM	1.01 µM	2.06 µM	1.51 µM	5.76 µM	0.91 µM	1.76 µM	7.51 µM	1.66 µM	7.43 µM	2.26 µM
COc1cc(-c2nn(C(=O)NS(=O)(=O)c3ccc(C)cc3)cc2-c2ccncc2)ccc1Cl	2.66 µM	10.6 µM	3.19 µM	28.2 µM	3.02 µM	24.1 µM	5.76 µM	26.2 µM	3.6 µM	14.2 µM	20.4 µM	> 100 µM	5.27 µM	28.9 µM	10.4 µM	4.32 µM	> 100 µM	10.3 µM	77.8 µM	26.7 µM
CCOC(=O)c1c(C)n(CC(C)C)c2c1cc1oc(=O)c(=O)n3cnc2c13	15.7 µM	43 µM	8.18 µM	22.1 µM	10.7 µM	22.9 µM	12.5 µM	45.3 µM	16.9 µM	> 50 µM	1.79 µM	10.6 µM	12.3 µM	31 µM	> 50 µM	18 µM	> 50 µM	14.5 µM	43.4 µM	> 50 µM
O=C(O)C(Br)C(Br)c1ccccc1[N+](=O)[O-] (stereo not drawn)	–	> 100 µM	–	> 100 µM	–	> 100 µM	–	> 100 µM	–	> 100 µM	–	> 100 µM	–	> 100 µM	–	–	> 100 µM	–	> 100 µM	> 100 µM
O=C(c1ccco1)c1c(C(F)(F)F)nc2cc(C(F)(F)F)ccc2[n+]1[O-]	57.8 µM	> 100 µM	18.9 µM	40.9 µM	43.7 µM	> 100 µM	35.3 µM	> 100 µM	> 100 µM	> 100 µM	> 100 µM	> 100 µM	48.4 µM	> 100 µM	65.8 µM	24.6 µM	81.3 µM	16.5 µM	68.8 µM	> 100 µM
O=C(NCCCNC(=O)OCc1ccc2c(Br)cc(Br)c(O)c2n1)OCc1ccc2c(Br)cc(Br)c(O)c2n1	> 100 µM	> 100 µM	> 100 µM	> 100 µM	> 100 µM	> 100 µM	> 100 µM	> 100 µM	> 100 µM	> 100 µM	> 100 µM	> 100 µM	> 100 µM	> 100 µM	> 100 µM	> 100 µM	> 100 µM	> 100 µM	> 100 µM	> 100 µM
c1ccc2cc(OCC3CO3)c(OCC3CO3)cc2c1 (stereo not drawn)	–	5.57 µM	–	55.1 µM	–	15 µM	–	10.1 µM	–	13.3 µM	–	13.9 µM	–	12.8 µM	–	–	13.3 µM	–	23.5 µM	5.79 µM

Source: PubChem BioAssay (NCI)
